A short description of series [1]: Plasma clearance: plasma T₁ and T₂ times after injection. The format is in vivo. The settings on record: rabbit, 0.1 mmole/kg; for plasma T₁ / plasma T₂: 0.15 T.
Experimental: A dose of 0.1 mmole/kg of GdDTPA was injected into a rabbit and blood samples were drawn at 10 min intervals for 50 min. The blood was centrifuged, and the plasma T₁ and T₂ times were measured at 0.15 T with a RADX PROTON SPIN ANALYZER (Houston, TX).
In series [2] the test system is test population of animals. The settings on record: for LD₅₀: Table A, species and unit not given; for Safety Factor: in vivo.
Series [3] is described as follows: Dose needed to lower blood or plasma T₁ to 200 msec at 0.15 T.
The nature of series [4]: Paramagnetic relaxation properties in water at 10 MHz (0.15T), RADX spin analyzer. The format is physicochemical. The settings on record: 10 MHz (0.15T); for spin-lattice (T₁) relaxation value / spin-spin (T₂) relaxation value: 37°C, triplicate, mean +/- SD; for millimolar relaxivity for T₁ / millimolar relaxivity for T₂: in water; for millimolar relaxivity for T₁: calculated from T₁ and concentration; for millimolar relaxivity for T₂: calculated from T₂ and concentration. As for the experimental part:
The paramagnetic relaxation properties of [manganese(II)·(H₂O)₂·(L-alanine)₂]⁺²(Cl₂)⁻² in water were measured at 10 MHz (0.15T) with a spin analyzer (RADX; Houston, TX) at 37°C. After thermal equilibrium, the spin-lattice (T₁) and spin-spin (T₂) relaxation values were measured in triplicate.
The paramagnetic relaxation of the title compound in water was measured at 10 MHz (0.15T) with a spin analyzer (RADX; Houston, TX). After thermal equilibrium, the spin-lattice (T₁) and spin-spin (T₂) relaxation values were measured.
Relaxivity was measured at 10 MHz (0.15T) as described in Example 10.
The relaxivity of the title compound was performed at 0.15 T (10 MHz) with a RADX Spin Analyzer (Houston, TX) at 37°C.

How the values of series [5] were obtained: Three buffers were tested for suitability.
One part of the solution of the title compound, synthesized according to Example 35, was added to one part of a US National Bureau of Standard buffer solution for pH 4.0 (American Scientific Products; Phthalate reference buffer).

Series [6] is described as follows: Paramagnetic relaxation properties in human plasma at 37°C. The series is classed as physicochemical. The settings on record: for T₂ value / T₁ value / R₁ / R₂ / T₁ changed by (repeat measurement) / T₂ changed by (repeat measurement): 37°C; for T₁ value: triplicate; for T₁ changed by (repeat measurement) / T₂ changed by (repeat measurement): repeat measurement 80 minutes later; for T₂ relaxivity in plasma, fold greater than GdDTPA: versus GdDTPA; for T₁ relaxivity in plasma, fold greater than GdDTPA: versus gadolinium diethylenetriaminepentaacetic acid chelate (GdDTPA).

Setting [7] is: one part + one part carbonate pH reference buffer pH 10.0, the pH was 10.45.
[8] abbreviates: one part + one part phosphate pH reference buffer pH 7.0, the pH was 7.63.
Where [9] appears, read: one part solution + one part phthalate reference buffer pH 4.0, the pH was 4.69.
[10] abbreviates: dose needed to lower T₁ from 1500 to 200 msec at 0.15 T, unit not given.

Several values for one entry are separate records, joined by “and”; a condition that tells them apart may be missing. Identical values can stand only once. Like-named read-outs stand apart in the source and are kept apart here.

As for `O=C([O-])CN(CCN(CC(=O)[O-])CC(=O)O)CCN(CC(=O)[O-])CC(=O)O.[Gd+3]` [GdDTPA, gadolinium diethylenetriaminepentaacetic acid chelate, reference compound], the “time for which the plasma T₁ was maintained below 300” value in series [1] turned out to be 10 min. Also, the “plasma T₁” value was 1380 ms in series [1] (0 min (baseline)); 259 ms and 269 ms in series [1] (10 min); 349 ms in series [1] (20 min); 348 ms in series [1] (30 min); 352 ms in series [1] (40 min); 340 ms in series [1] (50 min). Moreover, the “plasma T₂” value in series [1] (0 min (baseline)) was 588 ms; in series [1] (10 min), 245 ms; in series [1] (20 min), 287 ms; in series [1] (30 min), 283 ms; in series [1] (40 min), 270 ms; in series [1] (50 min) it was 298 ms.
Turning to `CC(=O)[O-].CC(=O)[O-].NCC(=O)O.NCC(=O)O.[Mn+2]` [Mn(acetate)₂-bis-glycine], in series [2], the LD₅₀ is 0.7 and the “Safety Factor” value was 70. In addition, in series [3], the “Plasma Dose, T₁ = 200” value is given as 0.10.
With `CC(=O)[O-].CC(=O)[O-].NCC(=O)O.NCC(=O)O.O.O.[Mn+2]` [[Manganese(II)·(H₂O)₂·(Glycine)₂]Diacetate], the “Relaxivity (mM⁻¹sec⁻¹) Spin-Lattice” value in series [4] (1 mM solution in water) was 8.40 mM⁻¹ s⁻¹. The “Relaxivity (mM⁻¹sec⁻¹) Spin-Spin” value in series [4] (1 mM solution in water) came out at 34.5 mM⁻¹ s⁻¹. The “appearance of the solution” value in series [5] (setting [7]), in series [5] (setting [8]) and in series [5] (setting [9]) was “remained clear” each time. Further, the “change of relaxivity over a 12 hour time period” value in series [5] (setting [7]), in series [5] (setting [8]) and in series [5] (setting [9]) was “the relaxivity did not change” each time.
For `N[C@@H](Cc1ccccc1)C(=O)O.N[C@@H](Cc1ccccc1)C(=O)O.O.O.[Cl-].[Cl-].[Mn+2]` [[Manganese(II)·(H₂O)₂·(L-phenylalanine)₂]⁺²(Cl₂)⁻²], in series [4] (0.95 mM solution in water), the “spin-lattice (T₁) relaxation value” is 107 ± 5 ms and the “spin-spin (T₂) relaxation value” turned out to be 27 ± 1 ms. In series [4], the “millimolar relaxivity for T₁” value was 9.84 mM⁻¹ s⁻¹ and the “millimolar relaxivity for T₂” value was 39.0 mM⁻¹ s⁻¹. Further, in series [6] (90 µM final concentration), the T₂ value is 186 ± 7 ms and the T₁ value stood at 240 ± 10 ms. Further, in series [6], the R₁ is 46.3 mM⁻¹ s⁻¹, the R₂ turned out to be 59.7 mM⁻¹ s⁻¹, the “T₁ changed by (repeat measurement)” value is listed as 2% and the “T₂ changed by (repeat measurement)” value was found to be 2%. In addition, in series [6], the “T₂ relaxivity in plasma, fold greater than GdDTPA” value is listed as 12.4 fold and the “T₁ relaxivity in plasma, fold greater than GdDTPA” value came to 9.65 fold.
Take `N[C@@H](Cc1ccc(O)cc1)C(=O)O.N[C@@H](Cc1ccc(O)cc1)C(=O)O.O.O.[Cl-].[Cl-].[Mn+2]` [[Manganese(II)·(H₂O)₂·(L-tyrosine)₂]⁺²(Cl₂)⁻²]: in series [4] (0.68 mM solution in water), the “spin-lattice (T₁) relaxation value” turned out to be 148 ± 1 ms and the “spin-spin (T₂) relaxation value” turned out to be 38 ± 1 ms. Besides, in series [4], the “millimolar relaxivity for T₁” value is 9.94 mM⁻¹ s⁻¹ and the “millimolar relaxivity for T₂” value was 38.7 mM⁻¹ s⁻¹. In addition, in series [6] (65 µM final concentration), the T₂ value came to 216 ± 2 ms and the T₁ value is 312 ± 20 ms. Further, in series [6], the R₁ came to 49.3 mM⁻¹ s⁻¹, the R₂ amounted to 71.6 mM⁻¹ s⁻¹, the “T₁ changed by (repeat measurement)” value was 5% and the “T₂ changed by (repeat measurement)” value is 9%. In series [6], the “T₂ relaxivity in plasma, fold greater than GdDTPA” value was found to be 14.8 fold and the “T₁ relaxivity in plasma, fold greater than GdDTPA” value stood at 10.3 fold.
Turning to Manganese chloride [MnCl₂], in series [3] (setting [10]), the “Plasma Dose, T₁ = 200” value is given as 0.01.
Take MnEDTA [reference compound]: in series [2], the LD₅₀ came to 5.0 and the “Safety Factor” value is recorded as 38. In addition, the “Plasma Dose, T₁ = 200” value in series [3] (setting [10]) worked out at 0.13.
